In ChEMBL document CHEMBL4765288, “Synthesis of novel monocarbonyl curcuminoids, evaluation of their efficacy against MRSA, including ex vivo infection model and their mechanistic studies” (Eur J Med Chem, 2020):
In brackets after ≈: the same amount, converted by molar mass. Activity calls are given as the source filed them. The calls are words filed in the database; no cut-off is given here. Positions of bridges follow the written chain, without caps; N, C: chain ends. Non-standard residues stand in square brackets, D forms with d. Residues, ends and D or L forms follow the SMILES beside them. *: point of attachment. X1 = CC[C@H](C)CCCCC(=O)*; Dab = NCC[C@H](N)C(=O)O

How the values were obtained:
[1] = Cytotoxicity against mouse 3T3 cells assessed as reduction in cell viability at 150 ug/ml after 4 hrs by MTT assay (reference value: 90.42 +/- 0.03%); type: cell-based; details: at 150 µg/mL, read-out: Activity
[2] = test system: Escherichia coli; experiment: Antibacterial activity against Escherichia coli E-74 after 16 to 18 hrs by CLSI-based microbroth dilution method; type: functional; details: time 16-18 hrs
[3] = test system: Staphylococcus aureus; experiment: Antibacterial activity against methicillin susceptible Staphylococcus aureus ATCC 29213 after 16 to 18 hrs by CLSI-based microbroth dilution method; type: functional; details: time 16-18 hrs
[4] = test system: Staphylococcus aureus; experiment: Antibacterial activity against methicillin resistant Staphylococcus aureus S-37 after 16 to 18 hrs by CLSI-based microbroth dilution method; type: functional; details: time 16-18 hrs
[5] = test system: Escherichia coli; experiment: Antibacterial activity against Escherichia coli ATCC 25922 after 16 to 18 hrs by CLSI-based microbroth dilution method; type: functional; details: time 16-18 hrs
[6] = test system: Cell membrane; experiment: Induction of cytoplasmic membrane permeabilization in Staphylococcus aureus ATCC 33591 at 5 times MIC measured after 120 min using calcein-AM as substrate by dye based fluorescence assay relative to control; type: subcellular
[7] = test system: Cell membrane; experiment: Induction of cytoplasmic membrane depolarization in methicillin resistant Staphylococcus aureus ATCC 33591 at 5 times MIC by [DiSC3(5)] probe based fluorescence assay relative to control; type: subcellular; details: time 2.0 hrs
[8] = test system: Escherichia coli; experiment: Antibacterial activity against Escherichia coli E-52 after 16 to 18 hrs by CLSI-based microbroth dilution method; type: functional; details: time 16-18 hrs
[9] = test system: Cell membrane; experiment: Induction of cell membrane damage in Staphylococcus aureus ATCC 33591 assessed as membrane surface perturbation with multiple dent and bleb formation at 5 times MIC after 4 hrs by scanning electron microscopy; type: subcellular
[10] = test system: Escherichia coli; experiment: Antibacterial activity against Escherichia coli ATCC 11775 after 16 to 18 hrs by CLSI-based microbroth dilution method; type: functional; details: time 16-18 hrs
[11] = test system: Staphylococcus aureus; experiment: Antibacterial activity against methicillin resistant Staphylococcus aureus ATCC 33591 after 16 to 18 hrs by CLSI-based microbroth dilution method; type: functional; details: time 16-18 hrs
[12] = test system: Staphylococcus aureus; experiment: Bactericidal activity against methicillin-resistant Staphylococcus aureus assessed as in viable cells at 5 times MIC measured after 1 hr by time-kill assay; type: functional
[13] = test system: Staphylococcus aureus; experiment: Antibacterial activity against methicillin resistant Staphylococcus aureus S-41 after 16 to 18 hrs by CLSI-based microbroth dilution method; type: functional; details: time 16-18 hrs
[14] = Hemolytic activity in mouse RBC at 75 ug/ml after 1 hr by microplate reader analysis relative to control; type: ADME, cell-based, Erythrocyte; details: mouse red blood cells (erythrocytes), at 75 µg/mL, read-out: Activity
[15] = test system: Cell membrane; experiment: Induction of cell membrane damage in Staphylococcus aureus ATCC 33591 at 5 times MIC assessed as loss of cell viability measured after 2 hrs by confocal microscopy
[16] = Cytotoxicity against mouse 3T3 cells assessed as reduction in cell viability at 75 ug/ml after 4 hrs by MTT assay (reference value: 90.42 +/- 0.03%); type: cell-based; details: 3t3, 4 h, at 75 µg/mL
[17] = test system: Staphylococcus aureus; experiment: Antibacterial activity against methicillin susceptible Staphylococcus aureus ATCC 29213 infected in mouse 3T3 cells assessed as bacterial load at 5 times MIC after 16 hrs (reference value: 6.6 log CFU/ml); type: functional
[18] = test system: Staphylococcus aureus; experiment: Antibacterial activity against methicillin resistant Staphylococcus aureus S-30 after 16 to 18 hrs by CLSI-based microbroth dilution method; type: functional; details: time 16-18 hrs
[19] = test system: Staphylococcus aureus; experiment: Antibacterial activity against methicillin resistant Staphylococcus aureus S-34 after 16 to 18 hrs by CLSI-based microbroth dilution method; type: functional; details: time 16-18 hrs
[20] = test system: Staphylococcus aureus; experiment: Antibacterial activity against methicillin resistant Staphylococcus aureus S-33 after 16 to 18 hrs by CLSI-based microbroth dilution method; type: functional; details: time 16-18 hrs
[21] = test system: Cell membrane; experiment: Induction of cytoplasmic membrane permeabilization in Staphylococcus aureus ATCC 33591 at 5 times MIC measured after 2 min using calcein-AM as substrate by dye based fluorescence assay relative to control; type: subcellular
[22] = Hemolytic activity in mouse RBC at 150 ug/ml after 1 hr by microplate reader analysis relative to control; type: ADME, cell-based, Erythrocyte; details: mouse red blood cells (erythrocytes), at 150 µg/mL, read-out: Activity
[23] = test system: Escherichia coli; experiment: Antibacterial activity against Escherichia coli E-59 after 16 to 18 hrs by CLSI-based microbroth dilution method; type: functional; details: time 16-18 hrs
[24] = test system: Staphylococcus aureus; experiment: Antibacterial activity against methicillin resistant Staphylococcus aureus ATCC S-28 after 16 to 18 hrs by CLSI-based microbroth dilution method; type: functional; details: time 16-18 hrs
[25] = test system: Staphylococcus aureus; experiment: Bactericidal activity against methicillin-resistant Staphylococcus aureus assessed as reduction in viable count at 5 times MIC measured upto 4 hrs by time-kill assay; type: functional; details: time hrs <=4
[26] = test system: Staphylococcus aureus; experiment: Bactericidal activity against methicillin-resistant Staphylococcus aureus assessed as complete bacterial killing at 5 times MIC measured after 6 hrs by time-kill assay; type: functional, organism-based

Row | Structure (SMILES) | viability at 4 h, 150 ug/ml [1] [%] | MIC [2] [µg/mL] | MIC [3] [µg/mL] | MIC [4] [µg/mL] | MIC [5] [µg/mL] | Activity [6] [%] | Activity [7] [%] | MIC [8] [µg/mL] | Activity [9] | MIC [10] [µg/mL] | MIC [11] [µg/mL] | MIC [13] [µg/mL] | hemolysis at 1 h, 75 ug/ml [14] [%] | Activity [15] | Activity [16] [%] | MIC [18] [µg/mL] | MIC [19] [µg/mL] | MIC [20] [µg/mL] | MIC [23] [µg/mL] | MIC [24] [µg/mL] | also measured
1 | CCOc1cc(/C=C2\CC/C(=C\c3ccc(OCCCN4CCCC(C)C4)c(OCC)c3)C2=O)ccc1OCCCN1CCCC(C)C1.Cl.Cl (stereo not given) | 14.8 | 32 | 2 | 8 | 8 | 92.7 | 87 | 16 | Active | 8 | 4 | 8 | 6.19 | Active | 7.03 | 8 | 8 | 8 | 32 | 8 | Activity [12]: -3.4 log10CFU/ml; Activity [17]: 3.99 log10CFU/ml; Activity [21]: 60.2%; hemolysis at 1 h, 150 ug/ml [22]: 9.32%
2 | COc1cc(/C=C2\CC/C(=C\c3ccc(OCCCCN4CCCCCC4)c(OC)c3)C2=O)ccc1OCCCCN1CCCCCC1.Cl.Cl | 14.8 | 32 | 2 | 16 | 16 | 89 | 90.7 | 32 | Active | 16 | 4 | 8 | 6.19 | Active | 7.03 | 8 | 16 | 8 | 32 | 8 | Activity [17]: 3.23 log10CFU/ml; Activity [21]: 69.7%; hemolysis at 1 h, 150 ug/ml [22]: 9.32%
3 | Cc1onc(-c2ccccc2)c1C(=O)N[C@@H]1C(=O)N2[C@@H]1SC(C)(C)[C@@H]2C(=O)O [OXACILLIN] |  |  | 0.5 (≈ 1.25 µM) | 128 (≈ 319 µM) |  |  |  |  |  |  | 64 (≈ 159 µM) | 128 (≈ 319 µM) |  |  |  | 128 (≈ 319 µM) | 128 (≈ 319 µM) | 128 (≈ 319 µM) |  | 128 (≈ 319 µM) | 
4 | COc1cc(/C=C/C(=O)CC(=O)/C=C/c2ccc(O)c(OC)c2)ccc1O [CURCUMIN] |  |  | > 256 |  |  |  |  |  |  |  | > 256 |  |  |  |  |  |  |  |  |  | 
5 | Cl.Cl.O=C1/C(=C/c2ccc(OCCCCN3CCCCCC3)cc2)CC/C1=C\c1ccc(OCCCCN2CCCCCC2)cc1 | 14.8 | 32 | 4 | 8 | 16 | 90.3 | 95.7 | 16 | Active | 16 | 4 | 8 | 6.19 | Active | 7.03 | 4 | 8 | 8 | 32 | 4 | Activity [17]: 3 log10CFU/ml; Activity [25]: 4.3 log10CFU/ml; Activity [21]: 76.6%; hemolysis at 1 h, 150 ug/ml [22]: 9.32%
6 | CN[C@H](CC(C)C)C(=O)N[C@H]1C(=O)N[C@@H](CC(N)=O)C(=O)N[C@H]2C(=O)N[C@H]3C(=O)N[C@H](C(=O)N[C@H](C(=O)O)c4cc(O)cc(O)c4-c4cc3ccc4O)[C@H](O)c3ccc(c(Cl)c3)Oc3cc2cc(c3O[C@@H]2O[C@H](CO)[C@@H](O)[C@H](O)[C@H]2O[C@H]2C[C@](C)(N)[C@H](O)[C@H](C)O2)Oc2ccc(cc2Cl)[C@H]1O [VANCOMYCIN] |  | 128 (≈ 88.3 µM) |  |  | 64 (≈ 44.2 µM) |  |  | 128 (≈ 88.3 µM) |  | 64 (≈ 44.2 µM) |  |  |  |  |  |  |  |  | 128 (≈ 88.3 µM) |  | 
7 | CC[C@H](C)CCCCC(=O)N[C@@H](CCN)C(=O)N[C@H](C(=O)N[C@@H](CCN)C(=O)N[C@H]1CCNC(=O)[C@H]([C@@H](C)O)NC(=O)[C@H](CCN)NC(=O)[C@H](CCN)NC(=O)[C@H](CC(C)C)NC(=O)[C@@H](Cc2ccccc2)NC(=O)[C@H](CCN)NC1=O)[C@@H](C)O (X1-[Dab]T[Dab][Dab][Dab][dF]L[Dab][Dab]T; lactam 4-C) |  | 1 (≈ 0.831 µM) |  |  | 0.5 (≈ 0.415 µM) |  |  | 1 (≈ 0.831 µM) |  | 0.5 (≈ 0.415 µM) |  |  |  |  |  |  |  |  | 1 (≈ 0.831 µM) |  | 
8 | COc1cc(/C=C2\CC/C(=C\c3ccc(OCCCN4CCCCCC4)c(OC)c3)C2=O)ccc1OCCCN1CCCCCC1.Cl.Cl | 14.8 | 32 | 2 | 8 | 16 | 93.2 | 95.7 | 32 | Active | 16 | 4 | 8 | 6.19 | Active | 7.03 | 8 | 8 | 8 | 32 | 8 | Activity [17]: 3.91 log10CFU/ml; Activity [21]: 80.6%; hemolysis at 1 h, 150 ug/ml [22]: 9.32%; Activity [26]: Active
